Measurements published in patent US20130101996A1, “DETECTION METHOD AND APPARATUS OF ACTIVATED NEUTROPHILS” (SYSMEX CORPORATION, priority 2011, published 2013).

Tests used:
Format in all cases: cell-based, human
neutrophils [1] = experiment: Flow cytometry (FACSCalibur) of stimulated polymorphonucleocytes, 4DS-SSC scattergram; settings: PMA 0.32 nM or fMLP 50 nM, room temperature 10 min; versus non-stimulated control
Method: Peripheral blood is extracted from an able-bodied person by using a heparin blood collection tube for hematologic examination. A polynuclear sample of purity 90% or more is obtained by centrifugation of the obtained blood using a monopolymer separation solution (Dainippon Sumitomo Pharma Co., Ltd.) at room temperature. This operation is performed according to instructions of the manufacturer (Dainippon Sumitomo Pharma Co., Ltd.). Then, the obtained polymorphonucleocytes (2×10^5) are suspended in a 1 mL of 0.1% bovine serum albumin (phosphate buffered saline). To stain neutrophils of polymorphonucleocytes, CD16 (antihuman CD16 Fc gamma receptor III (clone: DJ130c).mouse monoclonal antibody/neutrophil specific antibody for RPE labeled flow cytometry; Dako) (final concentration: 750 μg/L) fluorescence-labeled by phycoerythrin (PE) is added to the obtained suspension for incubation at room temperature for 10 min. Next, APF (Aminophenyl Fluorescein, Sekisui Medical Co., Ltd.) (final concentration: 10 μM) as a reagent for ROS detection is added to the suspension, which is left still at room temperature for 30 min. […]

neutrophils [2] = experiment: Confocal laser microscope observation of APF fluorescence (ROS production) in stimulated neutrophils; settings: PMA as stimulating substance, APF 10 μM; confocal laser microscopes
Method: A sample containing activated neutrophils is prepared from peripheral blood extracted from an able-bodied person in the same manner as in Example 1. However, only PMA is used as a stimulating substance of neutrophils. A sample (−APF) not treated by APF and a stimulating substance and a sample (+APF) not treated by a stimulating substance are prepared as control samples.
Each prepared sample is moved to a glass bottom dish coated with poly-L-lysine to observe neutrophils in the sample by confocal laser microscopes (IX81 (manufactured by Olympus Corporation), CSU-X1 (manufactured by Yokogawa Electric Corporation), and ImagEM (manufactured by Hamamatsu Photonics K. K.)).

neutrophils [3] = experiment: Transmission electron microscope observation of stimulated neutrophils; settings: PMA or fMLP added, fixed by 2.5% glutaraldehyde
Method: A sample containing activated neutrophils is prepared from peripheral blood extracted from an able-bodied person in the same manner as in Example 1. Also, a sample not treated by a stimulating substance is prepared as a control sample.
The samples are fixed by 2.5% glutaraldehyde to prepare electron microscope samples according to the method described in the literature by the inventors (Mari Kono et al. (2009), ‘Morphological definition of CD71 positive reticulocytes by various staining techniques and electron microscopy compared to reticulocytes detected by an automated hematology analyzer’, Clinica Chimica Acta, Vol. 404, p105-110.). The obtained samples are analyzed by using a transmission electron microscope (Hitachi H-7500).

[4] = tested on: neutrophils in whole blood; experiment: Whole blood measured by automated blood cell counter XE-2100, DIFF scattergram of 4DS-SSC; settings: PMA 0.32 nM, room temperature 10 min; whole blood (EDTA-2K)
Method: Peripheral blood is extracted from an able-bodied person by using a blood collection tube containing EDTA-2K for hematologic examination. PMA (manufactured by Sigma-Aldrich Co., LLC.) (final concentration: 0.32 nM) is added to the obtained blood, which is left still at room temperature for 10 min. Whole blood to which PMA is not added is used as a control sample.
The prepared sample is supplied to the automated blood cell counter XE-2100 (manufactured by Sysmex Corporation) for measurement to acquire a DIFF scattergram of 4DS-SSC. The automated blood cell counter XE-2100 automatically treats the sample prepared as described above by using Stromatolyser-4DL and Stromatolyser-4DS (manufactured by Sysmex Corporation) to prepare a measurement sample.

Molecule | appearance region of neutrophils in 4DS-SSC scattergram (neutrophils [1]) | ROS production capability of neutrophils (APF derived fluorescence) (neutrophils [2]) | changes of form of neutrophils (degranulation, vacuole in cytoplasm) (neutrophils [3]) | appearance of activated neutrophils in 4DS-SSC scattergram, whole blood [4]
CCCCCCCCCCCCCC(=O)O[C@@H]1[C@@H](C)[C@@]2(O)[C@@H](C=C(CO)C[C@]3(O)C(=O)C(C)=C[C@@H]23)[C@@H]2C(C)(C)[C@]12OC(C)=O [PMA, Phorbol 12-myristate 13-acetate] | neutrophils appear on other regions | enhanced | many neutrophils in which degranulation and vacuole are produced in cytoplasm are observed | activated neutrophils appear between a cluster containing neutrophils and a cluster containing eosinophils
N-Formyl-Met-Leu-Phe [fMLP] | neutrophils appear on other regions |  | many neutrophils in which degranulation and vacuole are produced in cytoplasm are observed | 
